Values quoted from earlier work, collected in US20040185057A1, “Therapeutical vaccination” (priority 2001, published 2004).
Read-outs that look alike come from different tables or passages of the source.

How the values were obtained:
[1] = test system: HLA-A2 super type MHC class-I molecule, allele A*6802; conditions: HLA-A2 allele A*6802; read-out: Binding capacity, IC50

Compound	IC50 [1] [nM]	immunomodulating effect (concentrations in the pg range)	immunomodulating effect (concentrations in the μg range)
LTFGWCFKL	5.6	–	–
CC(=O)O[C@@H]1[C@H](O[C@@H]2O[C@@H](CO)[C@H](O)[C@H]2O)[C@@H](O[C@@H]2O[C@@H](C)[C@H](O[C@@H]3OC[C@@H](O)[C@H](O)[C@H]3O)[C@@H](O)[C@H]2O)[C@H](OC(=O)[C@]23CCC(C)(C)C[C@H]2C2=CC[C@@H]4[C@@]5(C)CC[C@H](O[C@@H]6O[C@H](C(=O)O)[C@@H](O)[C@H](O[C@@H]7OC[C@@H](O)[C@H](O)[C@H]7O)[C@H]6O[C@@H]6O[C@H](CO)[C@H](O)[C@H](O)[C@H]6O)[C@@](C)(C=O)[C@H]5CC[C@@]4(C)[C@]2(C)CC3)O[C@@H]1C [Squarroside A]	–	stimulant effect	suppressive effect
LLQLTVWGI	645	–	–
LTFGWCFKLV	6.2	–	–
RILQQLLFI	1820	–	–
KMIGGIGGFI	3330	–	–
SLLNATDIAV	5480	–	–
MASDFNLPPV	18.2	–	–
LVGPTPVNI	67.8	–	–
MTNNPPIPV	12.1	–	–
AIIRILQQL	548	–	–
